ChEMBL document CHEMBL1153307, “Total synthesis and antihypertensive activity of (+/-)7,8-dihydroxy-3-methyl-isochromanone-4” (Bioorg Med Chem Lett, 2009)
The source made the active and inactive calls. The calls are words filed in the database; no cut-off is given here.

Assays:
Rattus norvegicus [1] = test: Acute antihypertensive activity in two-kidney one-clip renal hypertensive rat assessed as reduction in systolic arterial pressure at 100 mg/kg/day; assay type: functional, organism-based
Rattus norvegicus [2] = test: Acute antihypertensive activity in two-kidney one-clip renal hypertensive rat assessed as reduction in diastolic arterial pressure at 100 mg/kg/day; assay type: functional, organism-based
Sus scrofa [3] = organism: Sus scrofa; test: Inhibition of pig lung ACE at 100 umol/L assessed as enzyme restrain rate; parameters: scale not given: the % may be the effect or the level left
Sus scrofa [4] = organism: Sus scrofa; test: Inhibition of pig lung ACE at 10 umol/L assessed as enzyme restrain rate; parameters: scale not given: the % may be the effect or the level left
Sus scrofa [5] = organism: Sus scrofa; test: Inhibition of pig lung ACE at 1 umol/L assessed as enzyme restrain rate; parameters: scale not given: the % may be the effect or the level left
Sus scrofa [6] = organism: Sus scrofa; test: Inhibition of pig lung ACE at 100 nmol/L assessed as enzyme restrain rate; parameters: scale not given: the % may be the effect or the level left
Sus scrofa [7] = organism: Sus scrofa; test: Inhibition of pig lung ACE at 10 nmol/L assessed as enzyme restrain rate; parameters: scale not given: the % may be the effect or the level left
Sus scrofa [8] = organism: Sus scrofa; test: Inhibition of pig lung ACE at 100 pmol/L assessed as enzyme restrain rate; parameters: scale not given: the % may be the effect or the level left
Sus scrofa [9] = organism: Sus scrofa; test: Inhibition of pig lung ACE at 10 pmol/L assessed as enzyme restrain rate; parameters: scale not given: the % may be the effect or the level left
Sus scrofa [10] = organism: Sus scrofa; test: Inhibition of pig lung ACE at 1 pmol/L assessed as enzyme restrain rate; parameters: scale not given: the % may be the effect or the level left

Row | Structure (SMILES) | Activity (Rattus norvegicus [1]) | Activity (Rattus norvegicus [2]) | Activity (Sus scrofa [3]) [%] | Activity (Sus scrofa [4]) [%] | Activity (Sus scrofa [5]) [%] | Activity (Sus scrofa [6]) [%] | Activity (Sus scrofa [7]) [%] | Activity (Sus scrofa [8]) [%] | Activity (Sus scrofa [9]) [%] | Activity (Sus scrofa [10]) [%]
1 | CC1OCc2c(ccc(O)c2O)C1=O (racemic) | Active | Active | 77 | 61 | 61 | 74 | 87 | 44 | 41 | 34
2 | C[C@H](CS)C(=O)N1CCC[C@H]1C(=O)O | – | – | 94 | 94 | 95 | 97 | 96 | 48 | 47 | 42
